Measured values: PubChem BioAssay (NCI)
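Each compound was tested at five concentrations against cells in 96-well plates for 48 hours. At the GI50, growth is halved. TGI denotes the concentration required for complete inhibition of growth.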

Experiments:
Experiment in all cases: NCI tumour cell line growth inhibition, 48 h
[1] = test system: KM12 colon
[2] = test system: HT29 colon
[3] = test system: RXF 393 renal
[4] = test system: 786-0 renal
[5] = test system: SW-620 colon
[6] = test system: UO-31 renal
[7] = test system: SF-268 CNS
[8] = test system: MCF7 breast
[9] = test system: SR leukemia
[10] = test system: BT-549 breast
[11] = test system: SK-MEL-5 melanoma
[12] = test system: MALME-3M melanoma
[13] = test system: HCT-116 colon
[14] = test system: HCT-15 colon
[15] = test system: OVCAR-5 ovarian
[16] = test system: SNB-19 CNS
[17] = test system: HL-60(TB) leukemia
[18] = test system: CAKI-1 renal
[19] = test system: MOLT-4 leukemia
[20] = test system: OVCAR-3 ovarian
[21] = test system: SNB-75 CNS
[22] = test system: HOP-92 NSCLC
[23] = test system: SF-539 CNS
[24] = test system: OVCAR-8 ovarian
[25] = test system: T-47D breast
[26] = test system: SK-MEL-28 melanoma
[27] = test system: U251 CNS
[28] = test system: CCRF-CEM leukemia
[29] = test system: NCI-H522 lung
[30] = test system: LOX IMVI melanoma
[31] = test system: NCI-H226 lung
[32] = test system: M14 melanoma
[33] = test system: EKVX NSCLC
[34] = test system: TK-10 renal
[35] = test system: OVCAR-4 ovarian
[36] = test system: SK-MEL-2 melanoma
[37] = test system: IGROV1 ovarian
[38] = test system: A498 renal
[39] = test system: UACC-62 melanoma
[40] = test system: UACC-257 melanoma
[41] = test system: DU-145 prostate
[42] = test system: SK-OV-3 ovarian
[43] = test system: MDA-MB-231 breast
[44] = test system: K-562 leukemia
[45] = test system: PC-3 prostate
[46] = test system: SN12C renal
[47] = test system: NCI-H460 lung
[48] = test system: ACHN renal
[49] = test system: HS 578T breast
[50] = test system: MDA-MB-435
[51] = test system: RPMI-8226 leukemia
[52] = test system: NCI/ADR-RES ovarian
[53] = test system: HOP-62 NSCLC
[54] = test system: COLO 205 colon
[55] = test system: HCC-2998 colon
[56] = test system: A549 NSCLC
[57] = test system: SF-295 CNS
[58] = test system: NCI-H23 lung

`COc1ccc2nc(NNC(=O)c3cnccn3)c3cccn3c2c1` was tested, and the GI50 [1] was 321 nM, the TGI [1] was > 21000 nM and the GI50 [2] was 414 nM. The TGI [2] was > 67100 nM, the GI50 [3] was 663 nM and the TGI [3] was 7590 nM. The GI50 [4] was 321 nM, the TGI [4] was 5610 nM and the GI50 [5] was 315 nM. For the same compound, the GI50 [6] was 110 nM, the TGI [6] was 4980 nM and the GI50 [7] was 227 nM. The TGI [7] was 19400 nM, the GI50 [8] was 270 nM and the TGI [8] was 2770 nM. For the same compound, the GI50 [9] was 121 nM, the TGI [9] was > 100000 nM and the GI50 [10] was 857 nM. For the same compound, the TGI [10] was 21000 nM, the GI50 [11] was 537 nM and the TGI [11] was 4390 nM. For the same compound, the GI50 [12] was 639 nM, the TGI [12] was 15400 nM and the GI50 [13] was 195 nM. It also gave a TGI [13] of 5260 nM, a GI50 [14] of 61.1 nM and a TGI [14] of 2460 nM. For the same compound, the GI50 [15] was 704 nM, the TGI [15] was > 100000 nM and the GI50 [16] was 350 nM. For the same compound, the TGI [16] was 28000 nM, the GI50 [17] was 270 nM and the GI50 [18] was 248 nM. The TGI [18] was 15500 nM, the GI50 [19] was 201 nM and the TGI [19] was > 100000 nM. The GI50 [20] was 236 nM, the TGI [20] was > 22300 nM and the GI50 [21] was 408 nM. It also gave a TGI [21] of 9310 nM, a GI50 [22] of 930 nM and a TGI [22] of 9650 nM. The GI50 [23] was 362 nM, the TGI [23] was 10600 nM and the GI50 [24] was 303 nM. The TGI [24] was > 47300 nM, the GI50 [25] was 433 nM and the TGI [25] was 25500 nM. It also gave a GI50 [26] of 382 nM, a TGI [26] of 29800 nM and a GI50 [27] of 184 nM. For the same compound, the TGI [27] was 7160 nM, the GI50 [28] was 91.9 nM and the TGI [28] was > 100000 nM. The GI50 [29] was 363 nM, the TGI [29] was 11500 nM and the GI50 [30] was 177 nM. The TGI [30] was 1780 nM, the GI50 [31] was 428 nM and the TGI [31] was 6820 nM. The GI50 [32] was 208 nM, the TGI [32] was 2850 nM and the GI50 [33] was 268 nM. For the same compound, the TGI [33] was 18900 nM, the GI50 [34] was 329 nM and the TGI [34] was > 100000 nM. For the same compound, the GI50 [35] was 171 nM, the TGI [35] was 5070 nM and the GI50 [36] was 688 nM. For the same compound, the TGI [36] was > 100000 nM, the GI50 [37] was 132 nM and the TGI [37] was 2320 nM. The GI50 [38] was 684 nM, the TGI [38] was 9500 nM and the GI50 [39] was 278 nM. For the same compound, the TGI [39] was 2480 nM, the GI50 [40] was 689 nM and the TGI [40] was 7620 nM. It also gave a GI50 [41] of 283 nM, a TGI [41] of 26700 nM and a GI50 [42] of 540 nM. It also gave a TGI [42] of 9090 nM, a GI50 [43] of 833 nM and a TGI [43] of 17600 nM. For the same compound, the GI50 [44] was 351 nM, the TGI [44] was > 100000 nM and the GI50 [45] was 227 nM. The TGI [45] was > 100000 nM, the GI50 [46] was 426 nM and the TGI [46] was 13900 nM. The GI50 [47] was 134 nM, the TGI [47] was 3880 nM and the GI50 [48] was 114 nM. The TGI [48] was 7520 nM, the GI50 [49] was 2450 nM and the TGI [49] was > 59900 nM. The GI50 [50] was 572 nM, the TGI [50] was > 100000 nM and the GI50 [51] was 312 nM. For the same compound, the TGI [51] was > 100000 nM, the GI50 [52] was 207 nM and the TGI [52] was 2090 nM. For the same compound, the GI50 [53] was 118 nM, the TGI [53] was 20000 nM and the GI50 [54] was 331 nM. The TGI [54] was 8280 nM, the GI50 [55] was 522 nM and the TGI [55] was > 52500 nM. For the same compound, the GI50 [56] was 269 nM, the TGI [56] was 14300 nM and the GI50 [57] was 219 nM. The TGI [57] was 4350 nM, the GI50 [58] was 545 nM and the TGI [58] was > 36000 nM.
